The record followed here is patent US10173968B2, “Bishydrazone-based antifungal agents” (University of Kentucky Research Foundation, priority 2016, dated 2019).

Values after ≈ are worked out from the molar mass of the structure shown. Like-named read-outs stand apart in the source and are kept apart here.

In experiment [1] the test system is C. albicans ATCC 10231. As to the kind of experiment: Intracellular ROS production, DCFH-DA fluorescence assay. Type of experiment: cell-based, Candida albicans. To be noted: positive control at 1 mM, 1 h at 35° C. From the text: We used the 2′,7′-dichlorodihydrofluorescein diacetate (DCFH-DA) dye as a probe to measure the production of ROS in yeast cells upon treatment with our compounds. DCFH-DA can easily cross the cell membranes and be hydrolyzed by cellular esterases to the non-fluorescent 2′,7′-dichlorodihydrofluorescein (DCFH), which can further be oxidized to the highly fluorescent 2′,7′-dichlorofluorescein (DCF) by the intracellular ROS. Five mL of RPMI 1640 medium were inoculated using a single colony of C. albicans ATCC 10231 (strain A) in a Falcon tube and grown overnight at 35° C. at 200 rpm. The overnight culture was diluted by adding 200 μL of yeast cells to 800 μL of the same medium. […] H2O2 at 1 mM was also used as a positive control. Cells were centrifuged and washed twice with PBS buffer (pH 7.2). Cells were resuspended in the same buffer and incubated with DCFH-DA (20 μg/mL) for 30 min in the dark. Afterwards, cells were centrifuged and washed with PBS buffer to remove excess DCFH-DA. Glass slides with 10-15 μL of each mixture were prepared and observed in bright field and fluorescence modes (FITC filter set, excitation and emission wavelengths of 488 and 512 nm, respectively) using a Zeiss Axovert 200M fluorescence microscope (FIG. 3).

The next experiment has as its system A. baumannii ATCC 19606. In words: Antibacterial MIC, double-dilution method. Format: cell-based. The settings on record: Acinetobacter baumannii, ATCC19606, strain E, Gram-negative, read-out: MIC. The gist of the method: (§1)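 The lowest inhibitory concentration is reported from a twofold dilution series, after an initial single-concentration screen with every compound at 500 μM.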

Another experiment relates to B. subtilis 168. In words: Antibacterial MIC, double-dilution method. Format: cell-based. The settings on record: Bacillus subtilis, strain A, Gram-positive. The gist of the method:
as §1

In the next experiment the test system is E. cloacae ATCC 13047. In words: Antibacterial MIC, double-dilution method. Type of experiment: cell-based. The settings on record: Enterobacter cloacae, ATCC13047, strain F, Gram-negative, read-out: MIC. The gist of the method: as §1
In a further experiment the test system is E. coli MC1061. In words: Antibacterial MIC, double-dilution method. Format: cell-based. To be noted: Escherichia coli, strain G, Gram-negative, read-out: MIC. The gist of the method:
as §1

In the next experiment the test system is K. pneumoniae ATCC 27736. As to the kind of experiment: Antibacterial MIC, double-dilution method. Type of experiment: cell-based. To be noted: Klebsiella pneumoniae, ATCC27736, strain H, Gram-negative, read-out: MIC. The essentials: as §1
The test system of experiment [2] is L. monocytogenes ATCC 19115. In words: Antibacterial MIC, double-dilution method. Type of experiment: cell-based. The settings on record: Listeria monocytogenes, ATCC19115, strain B, Gram-positive, read-out: MIC. The essentials:
as §1

The test system of a further experiment is M. smegmatis MC2-155. As to the kind of experiment: Antibacterial MIC, double-dilution method. Format: cell-based. To be noted: Mycolicibacterium smegmatis, MC2155, strain K, mycobacterial, read-out: MIC. The essentials:
as §1

The next experiment concerns MRSA. As to the kind of experiment: Antibacterial MIC, double-dilution method. Format: cell-based. To be noted: Staphylococcus aureus, strain C, Gram-positive, read-out: MIC. The essentials:
as §1

In the next experiment the test system is P. aeruginosa ATCC 27853. In words: Antibacterial MIC, double-dilution method. Type of experiment: cell-based. To be noted: Pseudomonas aeruginosa, ATCC27853, strain I, Gram-negative, read-out: MIC. The essentials:
as §1

The test system of another experiment is S. enterica ATCC 14028. As to the kind of experiment: Antibacterial MIC, double-dilution method. Type of experiment: cell-based. The settings on record: Salmonella enterica, ATCC14028, strain J, Gram-negative, read-out: MIC. The gist of the method:
as §1

For the next experiment, the system named is VRE. As to the kind of experiment: Antibacterial MIC, double-dilution method. Format: cell-based. The settings on record: Enterococcus, strain D, Gram-positive, read-out: MIC. The gist of the method: as §1
For another experiment, the system named is C. albicans ATCC 1003. As to the kind of experiment: Antifungal MIC, CLSI M27-A3 microbroth dilution. To be noted: Candida albicans, ATCC1003, read-out: MIC. Type of experiment: cell-based, Candida albicans. On the procedure:
(§2) In vitro MIC testing was performed according to the CLSI M27-A3 standard microbroth dilution methodology for the susceptibility testing of yeasts with minor modifications.
Background: In broth dilution the organism is exposed to a series of concentrations in liquid medium.

In experiment [3] the test system is C. albicans ATCC 10231. As to the kind of experiment: Antifungal MIC, CLSI M27-A3 microbroth dilution. Type of experiment: cell-based, Candida albicans. The settings on record: Candida albicans, ATCC10231, C. albicans ATCC 10231, resistant to FLC, ITC, and VOR, read-out: MIC. The protocol:
as §2

The subject of a further experiment is C. albicans ATCC 1237. As to the kind of experiment: Antifungal MIC, CLSI M27-A3 microbroth dilution. To be noted: Candida albicans, ATCC1237, C. albicans ATCC 1237, resistant to FLC, ITC, and VOR, read-out: MIC. Format: cell-based, Candida albicans. On the procedure: as §2
A further experiment relates to C. albicans ATCC 2310. As to the kind of experiment: Antifungal MIC, CLSI M27-A3 microbroth dilution. Type of experiment: cell-based, Candida albicans. The settings on record: Candida albicans, ATCC2310, C. albicans ATCC 2310, susceptible to FLC, ITC, and VOR, read-out: MIC. On the procedure:
as §2

Another experiment concerns C. albicans ATCC 2876. In words: Antifungal MIC, CLSI M27-A3 microbroth dilution. To be noted: Candida albicans, ATCC2876, C. albicans ATCC 2876, susceptible to FLC, ITC, and VOR, read-out: MIC. Type of experiment: cell-based, Candida albicans. On the procedure:
as §2

Another experiment concerns C. albicans ATCC 64124. In words: Antifungal MIC, CLSI M27-A3 microbroth dilution. Format: cell-based, Candida albicans. To be noted: Candida albicans, ATCC64124, C. albicans ATCC 64124, resistant to FLC, ITC, and VOR, read-out: MIC. The protocol:
as §2

The test system of a further experiment is C. albicans ATCC 90819. As to the kind of experiment: Antifungal MIC, CLSI M27-A3 microbroth dilution. The settings on record: Candida albicans, ATCC90819, C. albicans ATCC 90819, resistant to FLC, ITC, and VOR, read-out: MIC. Format: cell-based, Candida albicans. The protocol:
as §2

Experiment [4] deals with L. monocytogenes ATCC 19115 (strain B). Type of experiment: cell-based, Listeria monocytogenes. On the procedure: (§3) The bacteria were grown in MH broth at 37° C. for these experiments. […] The resulting cultures were diluted 1:1000 and grown until the culture reached ˜300,000 cfu/mL. That culture was then further diluted 1:1000 and used to determine the next round of MIC values.

Another experiment deals with MRSA (strain C). Type of experiment: cell-based, Staphylococcus aureus. The protocol:
as §3

Another experiment has as its system VRE (strain D). Format: cell-based, enterococcus. The protocol: as §3
Experiment [5] deals with P. aeruginosa ATCC 27853 (strain I). Type of experiment: cell-based. On the procedure:
as §3

In experiment [6] the test system is all bacterial strains tested. In words: Antibacterial MIC, summary over the panel. Format: cell-based. To be noted: read-out: MIC, span over all bacterial strains tested. On the procedure: MIC values were determined against a variety of Gram-positive (strains A-D) and Gram-negative (E-J) bacterial and mycobacterial (K) strains using the double-dilution method, as previously published. Preliminary screening was performed using 500 μM of each compound.

Where [7] appears, read: after 15 serial passages at sub-inhibitory concentrations.

Regarding `OO` [Compound H2O2, H2O2, reference compound], in the experiment on C. albicans ATCC 10231 [1], the “intracellular ROS production” value is given as “induced ROS production”.
On to `C/C(=N\NC(=N)N)c1ccc(CCc2ccc(/C(C)=N/NC(=N)N)cc2)cc1.Cl.Cl` [Compound 4D, (2E,2′E)-2,2′-((Ethane-1,2-diylbis(4,1-phenylene))bis(ethan-1-yl-1-ylidene))bis(hydrazine-1-carboximidamide) dihydrochloride], for which the MIC in the experiment on A. baumannii ATCC 19606 (converted from μM) is more than 226 µg/mL; with A. baumannii ATCC 19606 (range 0.5 to 500 μM), more than 500 µM; with B. subtilis 168 (converted from μM), more than 226 µg/mL; in the experiment on B. subtilis 168 (range 0.5 to 500 μM) it was more than 500 µM; with E. cloacae ATCC 13047 (converted from μM), more than 226 µg/mL; in the experiment with E. cloacae ATCC 13047 (range 0.5 to 500 μM), more than 500 µM. Moreover, the MIC in the experiment with E. coli MC1061 (converted from μM) is more than 226 µg/mL; with E. coli MC1061 (range 0.5 to 500 μM), more than 500 µM; in the experiment on K. pneumoniae ATCC 27736 (converted from μM), more than 226 µg/mL; in the experiment on K. pneumoniae ATCC 27736 (range 0.5 to 500 μM) it was more than 500 µM; in [2] (converted from μM) it was 0.5 µg/mL; in experiment [2] (range 0.5 to 500 μM), 1 µM. In addition, the MIC is 0.5 µg/mL in the experiment on M. smegmatis MC2-155 (converted from μM); 1 µM in the experiment with M. smegmatis MC2-155 (range 0.5 to 500 μM); 0.5 to 0.9 µg/mL in the experiment with MRSA (converted from μM); 1 to 2 µM with MRSA (range 0.5 to 500 μM); more than 226 µg/mL with P. aeruginosa ATCC 27853 (converted from μM); more than 500 µM in the experiment with P. aeruginosa ATCC 27853 (range 0.5 to 500 μM). Also, the MIC was more than 226 µg/mL with S. enterica ATCC 14028 (converted from μM); more than 500 µM in the experiment on S. enterica ATCC 14028 (range 0.5 to 500 μM); 0.5 µg/mL in the experiment on VRE (converted from μM); 1 µM in the experiment on VRE (range 0.5 to 500 μM); 34.6 µM in the experiment with C. albicans ATCC 1003 (C. albicans ATCC 1003, converted from μg/mL); 15.6 µg/mL in the experiment with C. albicans ATCC 1003. Moreover, the MIC amounted to 17.3 µM in the experiment on C. albicans ATCC 10231 [3] (converted from μg/mL); 7.8 µg/mL with C. albicans ATCC 10231 [3]; 34.6 µM in the experiment on C. albicans ATCC 1237 (converted from μg/mL); 15.6 µg/mL in the experiment on C. albicans ATCC 1237; 69.3 µM in the experiment with C. albicans ATCC 2310 (converted from μg/mL); 31.3 µg/mL in the experiment with C. albicans ATCC 2310. In addition, the MIC in the experiment on C. albicans ATCC 2876 (converted from μg/mL) is 8.6 µM; in the experiment on C. albicans ATCC 2876, 3.9 µg/mL; in the experiment with C. albicans ATCC 64124 (converted from μg/mL), more than 69.3 µM; in the experiment on C. albicans ATCC 64124, more than 31.3 µg/mL; in the experiment on C. albicans ATCC 90819 (converted from μg/mL) it was 17.3 µM; in the experiment on C. albicans ATCC 90819 it was 7.8 µg/mL. The “increase in relative MIC values” is listed as 8 fold in [4] (setting [7]), 16 fold in the experiment on MRSA (strain C) (setting [7]), 16 fold in the experiment with VRE (strain D) (setting [7]) and 4 fold in experiment [5] (setting [7]).
As for `NCC[C@H](O)C(=O)N[C@@H]1C[C@H](N)[C@@H](O[C@H]2O[C@H](CN)[C@@H](O)[C@H](O)[C@H]2O)[C@H](O)[C@H]1O[C@H]1O[C@H](CO)[C@@H](O)[C@H](N)[C@H]1O` [AMK, amikacin, reference compound], the MIC was 3 to 12.2 µg/mL with B. subtilis 168 (converted from μM); 3.9 to 15.6 µM against B. subtilis 168 (range 0.5 to 500 μM); 48.9 µg/mL with E. cloacae ATCC 13047 (converted from μM); 62.5 µM with E. cloacae ATCC 13047 (range 0.5 to 500 μM); 24.5 µg/mL with E. coli MC1061 (converted from μM); 31.3 µM in the experiment with E. coli MC1061 (range 0.5 to 500 μM). The MIC is 3.9 µM in [2] (range 0.5 to 500 μM); 12.2 µg/mL with M. smegmatis MC2-155 (converted from μM); 15.6 µM in the experiment with M. smegmatis MC2-155 (range 0.5 to 500 μM); 48.9 µg/mL with P. aeruginosa ATCC 27853 (converted from μM); 62.5 µM in the experiment with P. aeruginosa ATCC 27853 (range 0.5 to 500 μM); 3 to 6.1 µg/mL with S. enterica ATCC 14028 (converted from μM). Also, the MIC in the experiment with S. enterica ATCC 14028 (range 0.5 to 500 μM) is 3.9 to 7.8 µM; in the experiment on VRE (converted from μM), 97.7 µg/mL; in the experiment with VRE (range 0.5 to 500 μM), 125 µM; in experiment [6] it was 3.9 to 125 µM (≈ 2.28 to 73.2 µg/mL). The “development of resistance (passages after which resistance developed)” value in experiment [4] (up to 15 passages) is 15 passages; in the experiment with MRSA (strain C) (up to 15 passages) it was 12 passages; in the experiment on VRE (strain D) (up to 15 passages), 3 passages; in [5] (up to 15 passages) it was 5 passages.

For orientation: MIC means the lowest concentration found to suppress growth.
